Assay results from PubChem BioAssay (NCI).
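Assay format: 96-well plates, 48-hour exposure. GI50 marks 50% less growth. TGI: concentration producing complete growth inhibition.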

Tests used:
Assay in all cases: NCI-60 cell line screen, 48 h
HCT-116 colon = system: HCT-116 colon
ACHN renal = system: ACHN renal
SK-MEL-5 melanoma = system: SK-MEL-5 melanoma
KM12 colon = system: KM12 colon
OVCAR-4 ovarian = system: OVCAR-4 ovarian
NCI-H522 lung = system: NCI-H522 lung
SW-620 colon = system: SW-620 colon
SK-OV-3 ovarian = system: SK-OV-3 ovarian
UACC-257 melanoma = system: UACC-257 melanoma
MCF7 breast = system: MCF7 breast

Row | SMILES | GI50 (HCT-116 colon) | TGI (HCT-116 colon) | GI50 (ACHN renal) | TGI (ACHN renal) | GI50 (SK-MEL-5 melanoma) | TGI (SK-MEL-5 melanoma) | GI50 (KM12 colon) | TGI (KM12 colon) | GI50 (OVCAR-4 ovarian) | TGI (OVCAR-4 ovarian) | GI50 (NCI-H522 lung) | TGI (NCI-H522 lung) | GI50 (SW-620 colon) | TGI (SW-620 colon) | GI50 (SK-OV-3 ovarian) | TGI (SK-OV-3 ovarian) | TGI (UACC-257 melanoma) | GI50 (MCF7 breast) | TGI (MCF7 breast) | GI50 (UACC-257 melanoma)
1 | C=C1C(=O)O[C@H]2[C@H]1CC/C(Cn1cc(-c3cc(C)c(C)cc3C)nn1)=C\CC[C@@]1(C)O[C@@H]21 | 0.336 µM | 1.06 µM | 1.07 µM | 2.34 µM | 1.66 µM | 3.12 µM | 2.31 µM | 6.62 µM | 0.701 µM | 2.12 µM | 0.282 µM | 1.17 µM | 0.424 µM | 1.54 µM | 11.7 µM | 23.9 µM | – | – | – | –
2 | N#CC1C2CCC3(CC2CCN1C(=O)c1ccccc1)OCCO3 (configuration not stated) | – | > 100 µM | – | > 100 µM | – | > 100 µM | – | > 100 µM | – | > 100 µM | – | – | – | > 100 µM | – | > 100 µM | > 100 µM | – | – | –
3 | O=C(Nc1cccc(-n2cc(-c3ccncc3)c(-c3ccc(O)c(Cl)c3)n2)c1)Nc1cccc(C(F)(F)F)c1 | 2.05 µM | 5.87 µM | 2.51 µM | 8.4 µM | 1.59 µM | 3.01 µM | 1.72 µM | 3.48 µM | – | – | 1.55 µM | 4.31 µM | 2.66 µM | 8.21 µM | 3.59 µM | 23.1 µM | 5.48 µM | 2.15 µM | 6.59 µM | 2.35 µM
4 | C=C1C(=O)OC2CC(C)C3C=CC(=O)C3CC12 (configuration not stated) | – | 2.7 µM | – | 8.21 µM | – | 6.04 µM | – | 18.9 µM | – | 9.68 µM | – | 1.95 µM | – | 3.69 µM | – | 33.3 µM | 4.9 µM | – | – | –
5 | Cn1cnc([N+](=O)[O-])c1Sc1nnnn1-c1ccccc1 | – | 23.4 µM | – | 27 µM | – | 29.9 µM | – | 35.2 µM | – | 22.2 µM | – | 7.35 µM | – | 20.2 µM | – | > 100 µM | 27.6 µM | – | – | –
6 | N#C/C(=C\c1ccc(C(O)P(=O)(O)O)cc1)C(N)=O (configuration not stated) | – | > 100 µM | – | > 100 µM | – | > 100 µM | – | > 100 µM | – | > 100 µM | – | > 100 µM | – | > 100 µM | – | > 100 µM | > 100 µM | – | – | –
7 | CC1C(=O)O[C@H]2C1CC[C@@]1(C)[C@H](O)CC[C@@]13C[C@]2(O)OO3 (some centres not stated) | – | > 100 µM | – | > 100 µM | – | > 100 µM | – | – | – | > 100 µM | – | – | – | > 100 µM | – | > 100 µM | > 100 µM | – | – | –
8 | N#Cc1ccc2c(c1)C(=O)c1c-2n(CCCN)c(=O)c2cc([N+](=O)[O-])ccc12 | 0.199 µM | 1.59 µM | 0.0699 µM | 1.18 µM | 0.248 µM | 1.35 µM | 1.2 µM | 3.89 µM | 0.0912 µM | 0.257 µM | – | – | 0.0291 µM | 0.568 µM | 0.314 µM | 1.92 µM | 2.43 µM | – | – | 0.637 µM
9 | C[C@H](N)C(=O)N1C[C@H](CCCB(O)O)[C@](N)(C(=O)O)C1 | > 100 µM | > 100 µM | > 100 µM | > 100 µM | > 100 µM | > 100 µM | > 100 µM | > 100 µM | – | – | > 100 µM | > 100 µM | > 100 µM | > 100 µM | > 100 µM | > 100 µM | > 100 µM | > 100 µM | > 100 µM | > 100 µM
10 | C1COCCOCCOCCOCCO1.CC(=O)[CH-]C(C)=O.CC(=O)[CH-]C(C)=O.CC(=O)[CH-]C(C)=O.[V] | 13.4 µM | 27.3 µM | 12 µM | 44.1 µM | 2.47 µM | 12.8 µM | 16.8 µM | 37 µM | 0.56 µM | 3.81 µM | 16.9 µM | 39 µM | 22.9 µM | > 100 µM | 17.6 µM | 33 µM | 25.3 µM | – | – | 12.1 µM
11 | COc1cc(/C=C(\OC(C)=O)c2ccc3c(c2)OCO3)cc(OC)c1OC | – | 38.9 µM | – | 69.3 µM | – | 24.5 µM | – | 48.7 µM | – | 51.8 µM | – | 50.2 µM | – | > 100 µM | – | 66.8 µM | 34 µM | – | – | –
12 | Cc1ccc(Oc2ccc([N+](=O)[O-])cc2[N+](=O)[O-])c(C)c1 | – | > 100 µM | – | > 100 µM | – | 50 µM | – | – | – | > 100 µM | – | – | – | > 100 µM | – | > 100 µM | 99.6 µM | – | – | –
13 | CCOC(=O)/C(=C\c1ccc[nH]1)C(=O)c1ccccc1 | – | > 100 µM | – | > 100 µM | – | > 100 µM | – | > 100 µM | – | > 100 µM | – | > 100 µM | – | > 100 µM | – | > 100 µM | > 100 µM | – | – | –
14 | CC(C)C(=O)/C=C/c1ccc(Cl)c(Cl)c1 | – | 15.2 µM | – | 32.7 µM | – | 28.8 µM | – | 29 µM | – | > 100 µM | – | 35.1 µM | – | 36.3 µM | – | 70.3 µM | 45.1 µM | – | – | –
15 | CCOC(=O)CSc1[nH]c(NC(=S)Nc2ccccc2)c(C(N)=O)c1C(N)=O | – | – | – | – | – | > 10 µM | – | > 10 µM | – | > 10 µM | – | – | – | > 10 µM | – | > 10 µM | > 10 µM | – | > 10 µM | –
16 | O=C1CS/C(=N\S(=O)(=O)c2ccc(N3N=C4c5ccccc5CC4C3c3ccc(Cl)cc3)cc2)N1c1ccccc1 (configuration not stated) | 38.7 µM | > 100 µM | 27.7 µM | 66.5 µM | 32.2 µM | > 100 µM | 22 µM | 58.6 µM | – | – | 36.7 µM | > 100 µM | 37.4 µM | > 100 µM | 31.4 µM | 95.2 µM | > 100 µM | 18.7 µM | 47.9 µM | 92.9 µM
17 | NC(CC1=CCC=CC1)C(=O)O (configuration not stated) | – | > 100 µM | – | > 100 µM | – | > 100 µM | – | > 100 µM | – | > 100 µM | – | – | – | > 100 µM | – | > 100 µM | > 100 µM | – | > 100 µM | –
18 | CSc1ncnc2c1CCN2 | > 100 µM | > 100 µM | – | – | > 100 µM | > 100 µM | > 100 µM | > 100 µM | – | – | > 100 µM | – | > 100 µM | > 100 µM | > 100 µM | > 100 µM | > 100 µM | – | – | > 100 µM
19 | CC1(O)CCC2(C#N)CCC1C2O (configuration not stated) | – | > 100 µM | – | > 100 µM | – | > 100 µM | – | > 100 µM | – | > 100 µM | – | > 100 µM | – | – | – | > 100 µM | > 100 µM | – | – | –
